Structures are written as SMILES.

We go through two compounds from US20020058686A1, “Medicament” (SmithKline Beecham p.l.c., priority 1990, published 2002).

On to `CCCSc1ncc(C[C@H](NC(=O)CCC)C(=O)O)n1Cc1ccccc1Cl` [Example 1, 3-[(2-Chlorophenyl)methyl]-2-propylthio-N-butyrylhistidine], for which the melting point is 178 to 181 °C.
The result for `CCCCc1nc2cc(Br)cc(C(=O)O)c2n1Cc1ccccc1Cl` [Example 4, 5-Bromo-2-n-butyl-1-(2-chlorophenyl)methyl-1H-benzimidazole-7-carboxylic Acid] reads 254 to 255 °C.

What is called melting point is the temperature of the solid-liquid transition.
